In US12049445B2, “Compounds having S1P5 receptor agonistic activity” (ONO PHARMACEUTICAL CO., LTD., priority 2018, dated 2024):
pEC50, pIC50: −log10 of the molar value. Where a name gives a salt, the structure may show the parent alone.

Experiments:
[1] = biological target: T1, human S1P1 (EDG-1) (Homo sapiens, UniProt P21453); test: S1P receptor agonist activity by monitoring intracellular calcium concentration (S1P1); type: cell-based; conditions: for pEC50: CHO cells overexpressing human S1P1 (EDG-1) gene, intracellular calcium increase, S1P signal = 100% activity
Description: (§1) Chinese hamster ovary (CHO) cells in which each of a human S1P1 (EDG-1) gene or a human S1P5 (EDG-8) gene was overexpressed were cultured in Ham's F-12 medium containing 10% FBS (fetal bovine serum), penicillin/streptomycin, and geneticin (0.25 mg/mL). The culture medium was replaced one day before performing a calcium assay and on the day of the assay. Four hours after the culture medium replacement, the culture medium was removed, and washing was performed once with phosphate-buffered saline. After the cells were detached by adding 0.05% trypsin EDTA, the cells were recovered by adding a culture medium. The recovered cell suspension was centrifuged to remove the supernatant, and the cells were suspended in phosphate-buffered saline, and the cell number was counted. The cells were suspended in a Hanks solution containing Calcium 6 Assay Reagent (manufactured by Molecular Devices, LLC), 20 mM HEPES, and 2.5 mM probenecid at a cell density of 1.1×10^6 cells/mL, and the suspension was incubated at 37° C. for about 1 hour. Thereafter, the supernatant was removed by centrifugation, and the cells were suspended in a Hanks solution containing 20 mM HEPES, 2.5 mM probenecid, and 0.1% BSA at a cell density of 2.2×10^6 cells/mL. The suspension was inoculated in a 96-well plate at 80 μL/well. The plate was set on a fluorescent drug screening system (FDSS 6000), and the compound and S1P were sequentially added thereto, and an increase in intracellular calcium concentration between before and after the addition was measured at an excitation wavelength of 480 nm and a fluorescence wavelength of 540 nm. The increase in intracellular calcium concentration was evaluated by the signal intensity at the fluorescence wavelength, and the agonist activity of each compound was calculated by assuming the signal intensity when S1P was added instead of the compound to be 100% activity.

[2] = biological target: human S1P5 (EDG-8) (Homo sapiens, UniProt Q9H228); test: S1P receptor agonist activity by monitoring intracellular calcium concentration (S1P5); type: cell-based; conditions: for pEC50: CHO cells overexpressing human S1P5 (EDG-8) gene, intracellular calcium increase, S1P signal = 100% activity; for balance of S1P5 receptor agonist activity against S1P1 receptor agonist activity (in words): comparison of calcium assay agonist activities at S1P1 and S1P5
Description: as §1

[3] = biological target: T2, human S1P5 (Homo sapiens, UniProt Q9H228); test: Inhibition of binding of [33P]-S1P to S1P5, CHO membrane fraction; conditions: membrane fraction of CHO cells overexpressing human S1P5; room temperature 60 minutes; read-out: inhibitory activity (IC50 value) for binding of [33P]-S1P to S1P5
T2 construct: expressed in transfected cells; host or cells: membrane fraction of Chinese hamster ovary (CHO) cells
Description: (§2) A reaction was carried out in a 96-well microplate by using a membrane fraction of Chinese hamster ovary (CHO) cells each of which was made to overexpress human S1P1 (EDG-1) gene or human S1P5 gene respectively, in an amount of the membrane fraction of 60 μg protein/mL. To each of the well, 100 μL of a vehicle (DMSO) solution or a compound solution at a two-fold concentration each diluted with Binding Buffer (50 mmol/L Tris pH 7.5, 5 mmol/L MgCl2, 0.5% BSA, Complete EDTA free (1 tablet/50 mL)) and 50 μL of 0.16 nmol/L [^33P]-S1P (manufactured by American Radiolabeled Chemicals, Inc.) diluted with Binding Buffer were added, and thereafter, the membrane fraction solution (50 μL) was added thereto, and a reacted was allowed to proceed at room temperature for 60 minutes. After the reaction, suction filtration was carried out by using a 96-well Unifilter, followed by washing with a washing buffer (50 mmol/L Tris pH 7.5, 0.5% BSA) ([…]), and then dried at 50 to 60° C. for 30 to 60 minutes. MicroScint (trade name) 20 (50 μL/well) was added thereto, and the plate was covered with TopSeal-A, and then a radioactivity was measured with TopCount (manufactured by PerkinElmer Co., Ltd.)
(§3) The compound concentration at which 50% of the specific binding of [^33P]-S1P to human S1P1 and human S1P5 was replaced (IC50 value) was used as an evaluation item. […]

[4] = biological target: T1, human S1P1 (EDG-1); test: Inhibition of binding of [33P]-S1P to S1P1, CHO membrane fraction; conditions: membrane fraction of CHO cells overexpressing human S1P1; room temperature 60 minutes; read-out: inhibitory activity (IC50 value) for binding of [33P]-S1P to S1P1
Description: as §2, §3

Sequence of human S1P5 (EDG-8) (Q9H228 whole entry): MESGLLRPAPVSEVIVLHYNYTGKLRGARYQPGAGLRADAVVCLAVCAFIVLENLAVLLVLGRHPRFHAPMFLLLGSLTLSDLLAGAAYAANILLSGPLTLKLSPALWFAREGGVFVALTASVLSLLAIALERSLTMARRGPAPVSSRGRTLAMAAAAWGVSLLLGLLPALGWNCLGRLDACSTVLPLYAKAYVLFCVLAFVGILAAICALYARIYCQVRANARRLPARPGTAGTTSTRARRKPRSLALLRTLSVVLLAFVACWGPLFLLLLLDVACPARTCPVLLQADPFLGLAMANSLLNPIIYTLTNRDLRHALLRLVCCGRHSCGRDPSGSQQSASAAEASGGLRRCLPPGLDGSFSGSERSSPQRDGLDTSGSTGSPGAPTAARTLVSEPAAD
T1 sequence (P21453 whole entry): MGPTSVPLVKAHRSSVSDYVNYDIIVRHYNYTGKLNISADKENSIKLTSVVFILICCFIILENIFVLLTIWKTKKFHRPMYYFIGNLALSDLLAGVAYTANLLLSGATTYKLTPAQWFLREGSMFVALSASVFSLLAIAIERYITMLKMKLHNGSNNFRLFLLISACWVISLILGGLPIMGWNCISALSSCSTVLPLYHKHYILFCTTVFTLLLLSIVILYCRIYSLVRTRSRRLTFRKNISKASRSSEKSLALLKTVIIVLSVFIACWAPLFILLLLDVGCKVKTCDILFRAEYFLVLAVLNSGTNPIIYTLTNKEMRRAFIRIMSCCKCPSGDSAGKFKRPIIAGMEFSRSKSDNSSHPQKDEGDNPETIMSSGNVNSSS
T2 sequence (Q9H228 whole entry): as the sequence (Q9H228 whole entry) above

Row | pEC50 [1] | pEC50 [2] | SMILES | other results
1 | > 8.52 | 8.52 | CCCCCCCCOc1ccc2c(c1)CCC(CN1CC(C(=O)O)C1)=C2C.Cl [Comparative Compound A, 1-{[1-methyl-6-(octyloxy)-3,4-dihydro-2-naphthalenyl]methyl}-3-azetidinecarboxylic acid hydrochloride, reference compound] | balance of S1P5 receptor agonist activity against S1P1 receptor agonist activity (in words) [2]: S1P1 receptor agonist activity was stronger than the S1P5 receptor agonist activity
2 | 9.70 | 8.70 | CCCc1ccc(COc2ccc3c(c2)CCC(CN2CC(C(=O)O)C2)=C3C)c(OC)c1 [Comparative Compound B, 1-({6-[(2-methoxy-4-propylbenzyl)oxy]-1-methyl-3,4-dihydro-2-naphthalenyl}methyl)-3-azetidinecarboxylic acid, reference compound] | balance of S1P5 receptor agonist activity against S1P1 receptor agonist activity (in words) [2]: S1P1 receptor agonist activity was stronger than the S1P5 receptor agonist activity
3 | – | – | CC1=C(CNCCC(=O)O)CCc2cc(OCCCC3CCCCC3)ccc21 [Comparative Compound C, 3-({[6-(3-cyclohexylpropoxy)-1-methyl-3,4-dihydro-2-naphthalenyl]methyl}amino)propanoic acid hydrochloride] | pIC50 [3]: 8.07; pIC50 [4]: 9.00
4 | < 5.00 | < 5.00 | COc1ccc2c(c1)C[C@H](C)C(CN1CC(F)(C(=O)O)C1)=C2 [Comparative Example, (S)-3-fluoro-1-[(6-methoxy-3-methyl-3,4-dihydronaphthalen-2-yl)methyl]azetidine-3-carboxylic acid, reference compound] | S1P1 receptor agonist activity (in words) ([1]; calcium assay, CHO cells overexpressing human S1P1): did not have; S1P5 receptor agonist activity (in words) ([2]; calcium assay, CHO cells overexpressing human S1P5): did not have
5 | < 5.52 | 7.82 | C[C@H]1Cc2cc(OCCC(F)=C(F)F)ccc2C=C1CN1CC(F)(C(=O)O)C1 [Example 15 (52), 3-fluoro-1-[[(3S)-3-methyl-6-(3,4,4-trifluorobut-3-enoxy)-3,4-dihydronaphthalen-2-yl]methyl]azetidine-3-carboxylic acid] | –
6 | < 4.52 | 8.05 | C[C@H]1Cc2cc(OC/C=C/C(F)(F)F)ccc2C=C1CN1CC(F)(C(=O)O)C1 [Example 15 (82), 3-fluoro-1-[[(3S)-3-methyl-6-[(E)-4,4,4-trifluorobut-2-enoxy]-3,4-dihydronaphthalen-2-yl]methyl]azetidine-3-carboxylic acid] | –
7 | < 4.52 | 7.59 | C[C@H]1Cc2cc(OCCC(F)(F)F)ccc2C=C1CN1CC(F)(C(=O)O)C1 [Example 15 (86), 3-fluoro-1-{[(3S)-3-methyl-6-(3,3,3-trifluoropropoxy)-3,4-dihydro-2-naphthalenyl]methyl}-3-azetidinecarboxylic acid] | –
8 | < 4.52 | 7.01 | CCCOCc1ccc2c(c1)C[C@H](C)C(CN1CC(C(=O)O)C1)=C2 [Example 57 (2), 1-{[(3S)-3-methyl-6-(propoxymethyl)-3,4-dihydro-2-naphthalenyl]methyl}-3-azetidinecarboxylic acid] | –

Row | SMILES | pEC50 [1] | pEC50 [2] | other results
9 | C[C@H]1Cc2cc(OCCCC(F)(F)F)ccc2C=C1CN1CC(C(=O)O)C1 [Example 15 (34), 1-[[(3S)-3-methyl-6-(4,4,4-trifluorobutoxy)-3,4-dihydronaphthalen-2-yl]methyl]azetidine-3-carboxylic acid] | < 5.52 | 7.70 | –
10 | [2H]C([2H])([2H])C([2H])([2H])C([2H])([2H])C([2H])([2H])Oc1ccc2c(c1)C[C@H](C)C(CN1CC(C(=O)O)C1)=C2 [Example 15 (70), 1-[[(3S)-3-methyl-6-(1,1,2,2,3,3,4,4,4-nonadeuteriobutoxy)-3,4-dihydronaphthalen-2-yl]methyl]azetidine-3-carboxylic acid] | < 5.52 | 7.92 | –
11 | C[C@H]1Cc2cc(OCCCC(F)(F)F)ccc2C=C1CN1CC[C@@H](C(=O)O)C1 [Example 15 (72), (3R)-1-[[(3S)-3-methyl-6-(4,4,4-trifluorobutoxy)-3,4-dihydronaphthalen-2-yl]methyl]pyrrolidine-3-carboxylic acid] | < 5.52 | 7.66 | –
12 | CCCCCOc1ccc2c(c1)C[C@H](C)C(CN1CC(C(=O)O)C1)=C2 [Example 15, 1-[((3S)-3-methyl-6-pentoxy-3,4-dihydronaphthalen-2-yl)methyl]azetidine-3-carboxylic acid] | < 5.52 | 8.52 | –
13 | CC(N[C@H]1C[C@@H](C(=O)O)C1)C1=Cc2ccc(OCCCC(F)(F)F)cc2C[C@@H]1C (stereo partly drawn) [Example 47 (2), cis-3-({1-[(3S)-3-methyl-6-(4,4,4-trifluorobutoxy)-3,4-dihydro-2-naphthalenyl]ethyl}amino)cyclobutanecarboxylic acid] | < 4.52 | 5.96 | –
